Patent US10752631B2, “Heterocyclic compounds as FGFR inhibitors” (GUANGZHOU INNOCARE PHARMA TECH CO., LTD., priority 2016, dated 2020)

Tests used:
[1] = target: human recombinant FGFR3 catalytic structural domain protein (amino acids 399-806) (Homo sapiens (Human), UniProt P22607); assay: FGFR3 activity inhibition test (HTRF kinase assay); assay type: biochemical; settings: 90 μM ATP
[2] = target: human recombinant FGFR2 catalytic structural domain protein (amino acids 400-821) (Homo sapiens (Human), UniProt P21802); assay: FGFR2 activity inhibition test (HTRF kinase assay); assay type: biochemical; settings: 50 μM ATP
human recombinant FGFR2 catalytic structural domain protein (amino acids 400-821), sequence (P21802 400-821): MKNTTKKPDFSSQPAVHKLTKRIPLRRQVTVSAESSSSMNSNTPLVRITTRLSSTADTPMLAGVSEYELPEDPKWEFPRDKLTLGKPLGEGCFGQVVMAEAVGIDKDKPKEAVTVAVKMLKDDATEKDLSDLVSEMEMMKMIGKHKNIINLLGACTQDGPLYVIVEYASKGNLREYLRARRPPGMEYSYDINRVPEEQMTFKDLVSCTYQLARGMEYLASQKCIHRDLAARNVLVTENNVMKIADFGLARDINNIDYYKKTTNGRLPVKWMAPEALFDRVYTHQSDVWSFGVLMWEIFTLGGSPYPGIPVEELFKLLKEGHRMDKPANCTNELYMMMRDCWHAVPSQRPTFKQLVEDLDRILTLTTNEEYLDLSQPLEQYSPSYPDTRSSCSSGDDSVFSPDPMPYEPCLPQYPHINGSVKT

human recombinant FGFR3 catalytic structural domain protein (amino acids 399-806), sequence (P22607 399-806): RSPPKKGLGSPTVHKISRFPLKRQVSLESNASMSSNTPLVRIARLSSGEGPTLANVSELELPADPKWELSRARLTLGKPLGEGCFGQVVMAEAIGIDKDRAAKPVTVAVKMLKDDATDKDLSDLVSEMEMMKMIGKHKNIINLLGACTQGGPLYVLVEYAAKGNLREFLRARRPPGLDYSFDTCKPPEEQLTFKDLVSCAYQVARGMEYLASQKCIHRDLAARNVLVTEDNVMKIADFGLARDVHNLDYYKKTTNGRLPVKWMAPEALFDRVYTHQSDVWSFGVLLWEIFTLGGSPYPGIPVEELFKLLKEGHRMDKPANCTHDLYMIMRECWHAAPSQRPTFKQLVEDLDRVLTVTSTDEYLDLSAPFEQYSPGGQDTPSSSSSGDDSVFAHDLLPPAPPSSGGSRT

| Compound | IC50 [1] | IC50 [2] |
| --- | --- | --- |
| C#CC(=O)N1CC[C@@H](c2nc(C#Cc3cc(OC)cc(OC)c3)c3c(N)nccn23)C1 (stereo in doubt) [Compound 8, 1-((3,5-Dimethoxyphenyl)ethynyl)-3-(1-propynoylpyrrolidin-3-yl)imidazo[1,5-a]pyrazin-8-amine] | 50 to 500 nM | < 50 nM |
| CC#CC(=O)N1CC[C@@H](c2nc(C#Cc3cc(OC)cc(OC)c3)c3c(N)nccn23)C1 [Compound 5, (R)-1-((3,5-Dimethoxyphenyl)ethynyl)-3-(1-butan-2-ynoylpyrrolidin-3-yl)imidazo[1,5-a]pyrazin-8-amine] | < 50 nM | < 50 nM |
| C/C=C/C(=O)N1CC[C@@H](c2nc(C#Cc3cc(OC)cc(OC)c3)c3c(N)nccn23)C1 [Compound 7, (E)-1-((3,5-Dimethoxyphenyl)ethynyl)-3-(1-butan-2-enoylpyrrolidin-3-yl)imidazo[1,5-a]pyrazin-8-amine] | < 50 nM | < 50 nM |
| CC#CC(=O)N1CCC(c2nc(C#Cc3cc(OC)cc(OC)c3)c3c(N)nccn23)C1 (centres unmarked) [Compound 9, 1-((3,5-Dimethoxyphenyl)ethynyl)-3-(1-butan-2-ynoylpyrolidin-3-yl)imidazo[1,5-a]pyrazin-8-amine] | 50 to 500 nM | < 50 nM |
| COc1cc(C#Cc2nc(C3CCN(C(=O)/C=C/CN(C)C)C3)n3ccnc(N)c23)cc(OC)c1 (centres unmarked) [Compound 10] | < 50 nM | < 50 nM |
| C/C=C/C(=O)N1CC(c2nc(C#Cc3cc(OC)cc(OC)c3)c3c(N)nccn23)C1 [Compound 11, (E)-1-((3,5-Dimethoxyphenyl)ethynyl)-3-(1-but-2-enoylazacyclobutan-3-yl)imidazo[1,5-a]pyrazin-8-amine] | 50 to 500 nM | 50 to 500 nM |
| CC#CC(=O)N1CC(c2nc(C#Cc3cc(OC)cc(OC)c3)c3c(N)nccn23)C1 [Compound 12, 1-((3,5-Dimethoxyphenyl)ethynyl)-3-(1-but-2-ynoylazacyclobutan-3-yl)imidazo[1,5-a]pyrazin-8-amine] | 50 to 500 nM | 50 to 500 nM |
